Assay results from patent publication US10300155B2, “Alpha-synuclein ligands” (Washington University, priority 2015, dated 2019).
pEC50, pKi: −log10 of the molar value. Several values for one entry are separate records, joined by “and”; a condition that tells them apart may be missing. Equal entries are not always repeated. Where two headings read alike, the source gives them in different places.

Key:
α-synuclein fibrils [1] = target: T1, α-synuclein fibrils (Homo sapiens, UniProt P37840); assay: ThT competitive assay for α-synuclein fibrils (Table 1); format: binding; details: for EC50: α-synuclein fibrils
T1 construct: made in house; host or cells: E. coli BL21(DE3)RIL
Description: Upon binding to amyloid fibrils, a peak at approximately 440 nm becomes dominant with the fluorescent emission maximum shifted to 480 nm. This is accompanied by a strong enhancement of the fluorescence.
α-Synuclein recombinant protein was produced in E. coli. […] Freshly transformed BL21 colonies were inoculated into 2 L baffled flasks containing 250 mL sterilized TB (1.2% bactotryptone, 2.4% yeast extract, 0.4% glycerol, 0.17 M KH2PO4, 0.72 M K2HPO4) with 50 μg/ml ampicillin, and incubated overnight at 37° C. with shaking.
To determine the concentration of fibrils, the reaction mixture (100 μL) was centrifuged at 18,000×g for 10 minutes to separate fibrils from monomer. The α-synuclein monomer and other soluble proteins in the supernatant were removed, and the fibril pellet was resuspended in 100 μL solution of Tris-HCl (20 mM) and NaCl (100 mM). This fibril suspension was used in a bicinchoninic acid (BCA) protein assay along with a bovine serum albumin (BSA) standard curve to determine the concentration of fibrils in the 72 hour fibril reaction mixture.
To prepare the fibrils for performing binding assays, the fibril reaction mixture prepared above was centrifuged at 18,000×g for 10 minutes.
Once the ThT-α-synuclein saturation binding curve and dissociation constant (Kd) were determined the competitive assay for determining the binding affinity of various test compounds was conducted. […] The mixture was incubated at room temperature for 60 minutes on the shaking plate. The fluorescent intensity for each cell was measured by the fluorescence reader at λex and λem. The Ki value for each compound was calculated by the corresponding inhibition curve.
The Ki values were derived from the EC50 values using the Cheng-Prusoff equation: Ki=EC50/(1+[radioligand]/Kd). See FIGS. 17.1-31.2 for the inhibition curves for each compound in the ThioT competitive binding assay.

Aβ fibrils = Aβ fibrils (Homo sapiens, UniProt P05067); assay: ThT competitive assay for Aβ fibrils (Table 2); format: binding; parameters: made in house; host or cells: E. coli; details: for EC50: Aβ fibrils
Description: […] recombinant protein was produced in E. coli. Additional preparation was performed in a similar fashion to Example 115. […] The inhibitor that binds with highest affinity to Aβ fibrils has the lowest dissociation constant (Ki).

α-synuclein fibrils [2] = target: T1, α-synuclein fibrils; assay: Thioflavin T competition assay (Example 130, Table 9), α-synuclein fibrils; format: binding
Description: Freshly transformed BL21 colonies were inoculated into 2 L baffled flasks containing 250 ml sterilized TB (1.2% bactotryptone, 2.4% yeast extract, 0.4% glycerol, 0.17 M KH2PO4, 0.72 M K2HPO4) with 50 μg/ml ampicillin, and incubated overnight at 37° C. with shaking.
Competition assays used a fixed concentration of α-syn, Aβ, or tau fibrils (1 μM), consisting of 3 μM, 50 nM and 4 μM of ThioflavinT respectively. […] To optimize the determination of selectivity, assays for all three fibril species were set up in parallel using a common set of intermediate compound dilutions for each analog. Reactions were incubated at room temperature for 1.5 h before quantifying bound ligand as described above for the saturation binding assay. […] All data points were performed in triplicate. Nonspecific fluorescence was measured in parallel reactions containing ThioT plus each concentration of competitor but no fibrils, and these measurements were subtracted from the reactions with fibrils to yield fibril-specific fluorescence. Data were analyzed using Graphpad. Prism software (version 4.0) to obtain EC50 values by fitting the data to the equation Y=bottom+(top-bottom)/(1+10^(x−log EC50)).

tau fibrils = tau fibrils (Homo sapiens, UniProt P10636); assay: ThT competitive assay for tau fibrils (Table 3); format: binding; parameters: made in house; host or cells: E. coli; details: for EC50: tau fibrils
Description: Tau fibril recombinant protein was produced in E. coli. Additional preparation was performed in a similar fashion to Example 115.

[3] = Biodistribution in male Balb/C mice; format: in vivo; details: for Biodistribution: Blood / Biodistribution: Brain / Biodistribution: Fat / Biodistribution: Heart / Biodistribution: Kidney / Biodistribution: Liver / Biodistribution: Lung / Biodistribution: Muscle / Biodistribution: Pancreas / Biodistribution: Spleen: tail vein, mean ± SD, n = 4
Description: For the biodistribution studies, 100˜130 μCi of [^11C] TZ-20-35 in ˜100 μL of 10% ethanol/saline solution (v/v) was injected via the tail vein into mature male Balb/C mice (19-24 g) under anesthesia (2.5% isoflurane in oxygen at a flow rate of 1 mL/min). A group of at least four […] were used for each time point. […] The whole brain was quickly harvested. At the same time, samples of blood, heart, lung, liver, spleen, pancreas, kidney, muscle, fat, and tail were dissected. All the tissue samples were collected in tared tubes and counted in an automated gamma counter (Beckman Gamma 8000 well counter) with standards, prepared by diluting the injectate. The counted tissues were then weighed, and the % ID/g was calculated (Table 4).

[4] = average, read-out: Ki (nM) α-syn (avg)
[5] = individual determinations, read-out: Ki (nM) α-syn
[6] = average, read-out: EC50 (nM) EC50 (avg)
[7] = individual determinations, read-out: EC50 (nM) EC50
[8] = average, read-out: EC50(nM) EC50 (avg)
[9] = individual determinations, read-out: EC50(nM) EC50
[10] = average, read-out: Ki (nM) Aβ (avg)
[11] = individual determinations, read-out: Ki (nM) Aβ
[12] = average, read-out: α-synuclein EC50 (avg)
[13] = average, read-out: α-synuclein Ki (avg)
[14] = individual determinations, read-out: α-synuclein EC50
[15] = individual determinations, read-out: α-synuclein Ki
[16] = average, read-out: Ki (nM) Tau (avg)
[17] = individual determinations, read-out: Ki (nM) Tau
[18] = average, read-out: EC50m (nM) EC50 (avg)
[19] = individual determinations, read-out: EC50m (nM) EC50

tau fibrils, sequence (P10636 560-692 limits assumed): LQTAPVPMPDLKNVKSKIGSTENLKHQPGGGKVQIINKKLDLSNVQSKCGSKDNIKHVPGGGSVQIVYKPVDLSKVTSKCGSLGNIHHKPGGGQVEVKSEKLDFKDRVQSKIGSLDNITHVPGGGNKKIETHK
Aβ fibrils, sequence (P05067 672-713 limits assumed): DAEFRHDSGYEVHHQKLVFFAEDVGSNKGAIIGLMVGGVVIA

Compound: COc1ccc(/C=C/c2ccco2)cc1 [TZ-34-24]
- Ki (α-synuclein fibrils [1]; [4]): 345 nM
- Ki (α-synuclein fibrils [1]; [5]): 610 nM and 163 nM and 262 nM
- EC50 (α-synuclein fibrils [1]; [6]): 902 nM
- EC50 (α-synuclein fibrils [1]; [7]): 1590 nM and 426 nM and 686 nM
- EC50 (Aβ fibrils; [8]): 2280 nM
- EC50 (Aβ fibrils; [9]): 2560 nM and 2000 nM
- Ki (Aβ fibrils; [10]): 888 nM
- Ki (Aβ fibrils; [11]): 961 nM and 815 nM

Compound: COc1ccc2nc(C#Cc3ccnc(OC)c3)ccc2c1 [TZ-36-142]
- Ki (α-synuclein fibrils [1]; [4]): 233 nM
- Ki (α-synuclein fibrils [1]; [5]): 233 nM
- EC50 (α-synuclein fibrils [1]; [6]): 609 nM
- EC50 (α-synuclein fibrils [1]; [7]): 609 nM
- pEC50 (α-synuclein fibrils [2]; [12]): 6.22
- pKi (α-synuclein fibrils [2]; [13]): 6.63
- pEC50 (α-synuclein fibrils [2]; [14]): 6.22
- pKi (α-synuclein fibrils [2]; [15]): 6.63

Compound: COc1cc(/C=C/c2ccc3cc(OC(C)C)ccc3n2)ccn1 [TZ-36-138]
- Ki (α-synuclein fibrils [1]; [4]): 49 nM
- Ki (α-synuclein fibrils [1]; [5]): 49 nM
- EC50 (α-synuclein fibrils [1]; [6]): 128 nM
- EC50 (α-synuclein fibrils [1]; [7]): 128 nM
- pEC50 (α-synuclein fibrils [2]; [12]): 6.89
- pKi (α-synuclein fibrils [2]; [13]): 7.31
- pEC50 (α-synuclein fibrils [2]; [14]): 6.89
- pKi (α-synuclein fibrils [2]; [15]): 7.31

Compound: COc1ccc(/C=C/c2ccc(-c3cnc(C)s3)s2)cc1 [TZ-34-43]
- Ki (α-synuclein fibrils [1]; [4]): 134 nM
- EC50 (α-synuclein fibrils [1]; [6]): 351 nM
- EC50 (Aβ fibrils; [8]): 854 nM
- EC50 (Aβ fibrils; [9]): 854 nM
- Ki (Aβ fibrils; [10]): 320 nM
- Ki (Aβ fibrils; [11]): 320 nM
- Ki (tau fibrils; [16]): 512 nM
- Ki (tau fibrils; [17]): 512 nM
- EC50 (tau fibrils; [18]): 1260 nM
- EC50 (tau fibrils; [19]): 1260 nM

Compound: COC(=O)c1ccc(/C=C/c2ccncc2)cc1 [[^11C]TZ-20-35]
- brain uptake and washout (assessment in words) ([3]; 5 to 60 min post injection): Brain uptake and the washout kinetics were very good
- Biodistribution: Blood ([3]; 5 min post injection): 5.21 ± 0.20 % ID/g
- Biodistribution: Brain ([3]; 5 min post injection): 5.71 % ID/g and 5.71 ± 0.44 % ID/g
- Biodistribution: Fat ([3]; 5 min post injection): 0.90 ± 0.42 % ID/g
- Biodistribution: Heart ([3]; 5 min post injection): 4.72 ± 0.34 % ID/g
- Biodistribution: Kidney ([3]; 5 min post injection): 4.73 ± 0.41 % ID/g
- Biodistribution: Liver ([3]; 5 min post injection): 4.25 ± 0.36 % ID/g
- Biodistribution: Lung ([3]; 5 min post injection): 4.78 ± 0.21 % ID/g
- Biodistribution: Muscle ([3]; 5 min post injection): 4.06 ± 0.13 % ID/g
- Biodistribution: Pancreas ([3]; 5 min post injection): 3.64 ± 0.44 % ID/g
- Biodistribution: Spleen ([3]; 5 min post injection): 4.60 ± 0.16 % ID/g
- organ recovery ([3]; 30 min post injection): 52%
- Biodistribution: Blood ([3]; 30 min post injection): 2.79 ± 0.43 % ID/g
- Biodistribution: Brain ([3]; 30 min post injection): 2.43 % ID/g and 2.43 ± 0.41 % ID/g
- Biodistribution: Fat ([3]; 30 min post injection): 0.86 ± 0.07 % ID/g
- Biodistribution: Heart ([3]; 30 min post injection): 2.61 ± 0.54 % ID/g
- Biodistribution: Kidney ([3]; 30 min post injection): 4.43 ± 0.42 % ID/g
- Biodistribution: Liver ([3]; 30 min post injection): 8.72 ± 0.37 % ID/g
- Biodistribution: Lung ([3]; 30 min post injection): 2.94 ± 0.38 % ID/g
- Biodistribution: Muscle ([3]; 30 min post injection): 2.25 ± 0.33 % ID/g
- Biodistribution: Pancreas ([3]; 30 min post injection): 3.54 ± 0.90 % ID/g
- Biodistribution: Spleen ([3]; 30 min post injection): 3.44 ± 0.23 % ID/g
- organ recovery ([3]; 60 min post injection): 34%
- Biodistribution: Blood ([3]; 60 min post injection): 1.75 ± 0.25 % ID/g
- Biodistribution: Brain ([3]; 60 min post injection): 1.68 % ID/g and 1.68 ± 0.26 % ID/g
- Biodistribution: Fat ([3]; 60 min post injection): 0.58 ± 0.09 % ID/g
- Biodistribution: Heart ([3]; 60 min post injection): 1.80 ± 0.18 % ID/g
- Biodistribution: Kidney ([3]; 60 min post injection): 4.23 ± 0.47 % ID/g
- Biodistribution: Liver ([3]; 60 min post injection): 10.17 ± 1.08 % ID/g
- Biodistribution: Lung ([3]; 60 min post injection): 2.21 ± 0.44 % ID/g
- Biodistribution: Muscle ([3]; 60 min post injection): 1.18 ± 0.10 % ID/g
- Biodistribution: Pancreas ([3]; 60 min post injection): 5.42 ± 1.25 % ID/g
- Biodistribution: Spleen ([3]; 60 min post injection): 3.30 ± 0.36 % ID/g

Compound: COc1ccc(/C=C/c2cccs2)cc1 [TZ-34-26]
- Ki (α-synuclein fibrils [1]; [4]): 176 nM
- Ki (α-synuclein fibrils [1]; [5]): 51.3 nM and 283 nM and 126 nM and 291 nM and 82 nM and 221 nM
- EC50 (α-synuclein fibrils [1]; [6]): 460 nM
- EC50 (α-synuclein fibrils [1]; [7]): 134 nM and 739 nM and 329 nM and 762 nM and 214 nM and 580 nM
- EC50 (Aβ fibrils; [8]): 6660 nM
- EC50 (Aβ fibrils; [9]): 6660 nM
- Ki (Aβ fibrils; [10]): 2500 nM
- Ki (Aβ fibrils; [11]): 2500 nM
- Ki (tau fibrils; [16]): 1370 nM
- Ki (tau fibrils; [17]): 1370 nM
- EC50 (tau fibrils; [18]): 3350 nM
- EC50 (tau fibrils; [19]): 3350 nM
